The test system of data set [1] is NFPAs in heterozygous POMC KO mice. Put plainly: Study 2: TBR-760 vs individual DA and SST agonists on pituitary tumor growth. The class given is in vivo, mouse. An excerpt: (§1) Wild-type mice (3 male, 3 female) at age 6 months were scanned by MRI to determine average normal pituitary size. Heterozygous POMC KO mice were screened using MRI starting at average age 6.5 months (range, 5.5-9.5 months). These screening scans served to select animals for the study once reaching the baseline tumor volume of 10 mm^3 and to ensure reasonably homogenous groups. Most animals developed tumors within an average of 1.5 months after their first scan and at that point were randomly assigned to experimental groups. Two studies were conducted, the first comparing several doses of TBR-760 vs vehicle, and a second study comparing a fully effective dose of TBR-760 vs the molar equivalent and the 10× molar equivalent (based on the dose of TBR-760) of a pure SST agonist (BIM-23023), a pure DA agonist (BIM-53097), and the combination of the two. The concentration of the DA agonist was doubled to reflect the 2:1 ratio of DA:SST moieties present in TBR-760.
(§2) All groups were composed of 3 males and 3 females, with the exception of the vehicle- and TBR-760-treated groups (n = 8, 4 males/4 females) of the second study, which were maintained for survival analysis as described later. Once entered into the study, all mice received MRI scans for baseline, followed by scans at 2 weeks, 1 month, and 2 months after the baseline scan. Once tumor volume reached 10 mm^3 in the heterozygous POMC KO mice, the mice were treated by daily subcutaneous injection, with each injection given at the same approximate time of day. The mice were euthanized 8 weeks after start of treatment (ie, after the last scan), and pituitary tissue was collected, weighed, and flash-frozen, with the exception of the TBR-760 and vehicle-treated groups in the second study, which were maintained for survival analysis.
(§3) All studies were conducted on a Bruker 7T/210 mm Biospec system (Bruker) at the Duke Center for In Vivo Microscopy. The initial screening scans, conducted at age 6 months in wild-type mice, and average age 6.5 months (range, 5.5-9.5 months) in heterozygous POMC KO mice, were fast scans with scan times of 4 minutes (rapid acquisition with refocused echoes [RARE], repetition time [TR] = 1 second, echo time [TE] = 50 ms; 100 μm × 100 μm × 0.4 mm). Images were analyzed in ImageJ ([36]). Treatment monitoring MRI scans were carried out at 2 weeks, 1 month, and 2 months after start of treatment. For all monitoring scans, parameters were 40-minute scan time (RARE; TR = 5 seconds, TE = 50 ms; 100 μm × 100 μm × 0.3 mm). All scans included complete sectional scans of the pituitary, which were used to calculate tumor volume. MR images were preprocessed using bias field correction to account for the sensitivity profile of the receive coil, thus enhancing the tumor contrast. A trained analyst then manually segmented the tumor on each slice of the MRI. Volume of the tumor was then calculated by multiplying the area of the segmentation by the slice thickness for each slice of the image.
To compare the ability of TBR-760 to arrest aggressive pituitary tumor growth in the POMC KO mouse model vs its individual SST or DA components, either alone or in combination, heterozygous POMC KO mice were again randomly assigned to treatment groups when they presented with tumors approximately 10 mm^3 in size as determined by MRI. […]

A further data set addresses SSTR4. Further details: method as in earlier work. The settings on record: read-out: binding affinity for SSTR4; cited from earlier work.
The target in another data set is SSTR1. Further details: method as in earlier work. Particulars: read-out: binding affinity for SSTR1; cited from earlier work.
Data set [2] has as its target T1, human somatostatin type 2 receptor (SSTR2) (Homo sapiens, UniProt P30874). The settings on record: read-out: SSTR2 agonist activity cAMP, EC50; cited from earlier work.
Data set [3] in a line: Subcutaneous pharmacokinetics, plasma by HPLC-MS/MS. The class given is in vivo. The settings on record: mouse, 4 mg/kg sc, POMC KO mice, n = 4. As for the experimental part:
To study and compare the pharmacokinetic behavior of TBR-760, the DA analogue BIM-53097 and the SST analogue BIM-23023 solutions with appropriate concentrations were prepared as described earlier and mice were injected subcutaneously at time 0 with a dose of 4 mg/kg. Blood samples were collected at 15 and 30 minutes, and 1, 2, 4, 6, 8 and 24 hours after injection, and processed to obtain plasma. The determination of TBR-760, BIM-23023, or BIM-53097 was based on 100 μL plasma volume and was carried out by high-pressure liquid chromatography tandem mass spectrometry (HPLC-MS/MS) after protein precipitation with acetonitrile and subsequent solid-phase extraction. HPLC-MS/MS was performed on an AB SCIEX API 4000 LC-MS/MS with electrospray ionization operated in multiple-reaction monitoring mode for the analysis (Waters Corporation). Pharmacokinetic parameters were calculated by noncompartmental analyses using WinNonLin (version 5.2).

The subject of a further data set is residual NFPAs. Further details: method as in PMID 30540568. Particulars: after 24 months, cited from earlier work.
The target in data set [4] is T2, human dopamine type 2 receptor (D2R) (Homo sapiens, UniProt P14416). Kind of data set: D2R receptor binding affinity. The settings on record: internal Tiburio data. The source says: Table 1. Receptor binding affinity and agonist activity at human dopamine type 2 and somatostatin type 2 | column: D2R binding, Ki nM
T2 sequence (P14416 whole entry): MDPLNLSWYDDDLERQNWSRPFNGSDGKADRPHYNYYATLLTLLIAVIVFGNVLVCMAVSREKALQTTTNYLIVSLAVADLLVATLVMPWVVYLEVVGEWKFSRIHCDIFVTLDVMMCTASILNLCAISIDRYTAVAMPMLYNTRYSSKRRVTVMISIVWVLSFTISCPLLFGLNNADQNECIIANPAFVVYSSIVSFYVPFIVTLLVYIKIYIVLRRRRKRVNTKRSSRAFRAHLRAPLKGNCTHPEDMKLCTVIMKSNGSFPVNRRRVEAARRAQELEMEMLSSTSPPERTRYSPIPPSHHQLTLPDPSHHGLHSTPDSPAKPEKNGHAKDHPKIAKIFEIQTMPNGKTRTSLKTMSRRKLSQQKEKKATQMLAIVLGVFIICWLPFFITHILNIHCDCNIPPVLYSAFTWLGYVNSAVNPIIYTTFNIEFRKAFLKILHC
The target in data set [5] is T2, human dopamine type 2 receptor (D2R). Put plainly: D2R agonist activity, cAMP. In kind it is cell-based. Particulars: internal Tiburio data. How it is done:
Table 1. Receptor binding affinity and agonist activity at human dopamine type 2 and somatostatin type 2 | column: D2R agonist activity cAMP, EC50 nM

Data set [6] concerns the target T1, human somatostatin type 2 receptor (SSTR2). Kind of data set: SSTR2 receptor binding affinity. Particulars: internal Tiburio data. An excerpt: Table 1. Receptor binding affinity and agonist activity at human dopamine type 2 and somatostatin type 2 | column: SSTR2 binding, Ki nM
For data set [7], the system named is NFPAs in heterozygous POMC KO mice. Kind of data set: Survival analysis of tumor-bearing mice. In kind it is in vivo, mouse. The settings on record: TBR-760 1 mg/kg/day, at euthanasia; vehicle 45.76 ± 6.28. An excerpt: In the second study, the survival of TBR-760–treated mice was examined and compared with vehicle-treated mice. After the initial 8-week treatment period was complete, vehicle-treated mice were paired with TBR-760–treated mice, and treatment continued as before. When a vehicle-treated mouse died, its TBR-760-treated mouse partner continued to receive treatment for an additional 8 weeks before being euthanized. On death or euthanasia, pituitaries were collected, weighed, and flash-frozen.
Statistical analysis was performed using PRISM8 (GraphPad 2018). An ANOVA was performed followed by post hoc analysis with Dunnett’s multiple comparisons test. Results are expressed as mean ± SEM. P less than .05 was considered statistically significant. Survival analysis was performed using PRISM8 using the Gehan-Breslow-Wilcoxon test to compare the survival curves.

Data set [8] addresses T1, human somatostatin type 2 receptor (SSTR2). Kind of data set: SSTR2 agonist activity, cAMP. In kind it is cell-based. The settings on record: internal Tiburio data. As for the experimental part: Table 1. Receptor binding affinity and agonist activity at human dopamine type 2 and somatostatin type 2 | column: SSTR2 agonist activity cAMP, EC50 nM
The subject of data set [9] is NFPAs in heterozygous POMC KO mice. Kind of data set: Study 1: TBR-760 dose comparison on pituitary tumor growth (MRI volume, tumor weight). Particulars: mean ± SEM; for tumor volume after 8 weeks of treatment: vehicle 72.5 ± 5.9; for tumor weight after 8 weeks of treatment: vehicle 36 ± 7.4. In kind it is in vivo, mouse.
Excerpt: as §1, §2, §3
At that time, treatment was initiated with daily subcutaneous injections of either vehicle or 0.125, 1.25, or 12.5 mg/kg of TBR-760 for 8 weeks. […] The dramatic difference in tumor growth between vehicle- and TBR-760–treated mice was further confirmed by visual comparison and measurement of weights of pituitaries on death of the mice (Fig. 7B and 7C).

Data set [10] has as its system cultured human NFPA cells. Further details: method as in PMID 18509006. The settings on record: in vitro; cited from earlier work.

“And” between values parts separate entries of the source, which are not always exact repeats. Equal entries are not always repeated. Where two headings read alike, the source gives them in different places.

As usually defined, the EC50 is the concentration that produces a half-maximal response. What is called AUC(0-inf) is total exposure, with the tail of the curve extrapolated. Higher therefore signals high exposure. For orientation: Cmax means the peak of the concentration-time curve. What is called Tmax is the time from dosing to the highest level. As usually defined, the half-life is the time in which the quantity being followed falls by half. Low values mean rapid decline, high ones slow decline.

T1 sequence (P30874 whole entry): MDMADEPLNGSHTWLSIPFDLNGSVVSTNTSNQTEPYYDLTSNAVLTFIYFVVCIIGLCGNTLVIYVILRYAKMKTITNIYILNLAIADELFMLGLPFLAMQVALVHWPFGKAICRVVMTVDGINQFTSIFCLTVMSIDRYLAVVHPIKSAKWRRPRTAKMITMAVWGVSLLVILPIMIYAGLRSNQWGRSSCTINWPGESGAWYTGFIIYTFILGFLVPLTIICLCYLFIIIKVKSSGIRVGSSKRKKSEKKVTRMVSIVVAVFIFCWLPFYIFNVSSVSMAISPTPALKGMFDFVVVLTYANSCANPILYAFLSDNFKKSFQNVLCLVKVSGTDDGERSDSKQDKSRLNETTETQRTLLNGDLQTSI

Turning to `CC[C@@H]1NC(=O)[C@H](CCCCN)NC(=O)[C@@H](Cc2c[nH]c3ccccc23)NC(=O)[C@H](Cc2ccc(O)cc2)NC(=O)[C@@H](NC(=O)[C@H](N)Cc2ccccc2)CSSC[C@@H](C(=O)N[C@H](C(N)=O)[C@@H](C)O)NC1=O` [BIM-23023, reference compound], the “pituitary weight vs untreated, tumor-bearing controls” value in data set [1] (after 8 weeks of treatment) was “not significantly different”. Besides, in data set [1] (either dose (1 or 10 mg/kg) daily sc, 8 weeks), the “effect on tumor growth vs vehicle” value is given as “failed to show significant effects on tumor growth”. For the same compound, the Ki on SSTR4 is above 1000 nM. Moreover, on SSTR1, the Ki was above 1000 nM. Further, the EC50 in data set [2] was 0.14 nM. Also, in data set [3], the AUC(0-inf) is 2860 ng·h/mL, the concentration peaked (Cmax) at 2300 ng/mL, the Tmax amounted to 0.25 h and the half-life was 0.59 h.

Consider `C=CCN1C[C@H](C(=O)N(CCCN(C)C)C(=O)NCC)C[C@@H]2c3cccc4[nH]cc(c34)C[C@H]21` [Cabergoline], for which the “patients with significant tumor shrinkage” value in the data set on residual NFPAs (nonintervention group 10.5%) is listed as 28.8%. Also, the “patients with tumor growth” value in the data set with residual NFPAs (nonintervention group 15.8%) was 5.1%. Also, the “patients with stabilization of tumor” value with residual NFPAs (nonintervention group 73.7%) is 66.1%. In data set [4], this compound registered a Ki of 0.8 nM. In data set [5], this compound showed an EC50 of 0.026 nM.

Consider `CCCN1C[C@H](CSCC(=O)NCCCC[C@@H](NC(=O)CSC[C@@H]2C[C@@H]3c4cccc5[nH]cc(c45)C[C@H]3N(CCC)C2)C(=O)N[C@H]2CSSC[C@@H](C(=O)N[C@H](C(N)=O)[C@@H](C)O)NC(=O)[C@H](CC)NC(=O)[C@H](CCCCN)NC(=O)[C@@H](Cc3c[nH]c4ccccc34)NC(=O)[C@H](Cc3ccc(O)cc3)NC2=O)C[C@@H]2c3cccc4[nH]cc(c34)C[C@H]21` [TBR-760], for which the “tumor volume after 8 weeks of treatment” value in data set [1] (1 mg/kg/day sc, 8 weeks, mean ± SEM, vehicle 54.6 ± 10.6) amounted to 8.5 ± 1.3 mm^3; in data set [9] (0.125 mg/kg daily sc) it was 16.5 ± 2.6 mm^3; in data set [9] (1.25 mg/kg daily sc), 10.9 ± 1.1 mm^3; in data set [9] (12.5 mg/kg daily sc) it was 12.3 ± 1.0 mm^3. The “proportion of treated mice with tumor shrinkage” value in data set [1] (TBR-760 1 mg/kg/day sc) came out at 20%. The “mean tumor volume reduction in mice whose tumors shrank” value in data set [1] (TBR-760 1 mg/kg/day sc, 1 mg/kg/day) is 44.7% and 45%. Further, the Ki is 0.01 nM in [6], 12.1 nM in data set [4], above 1000 nM at SSTR4 and 843 nM at SSTR1. Moreover, the final tumor weight in [7] is on record as 5.42 ± 0.52 mg. Besides, the results for the EC50 in data set [5] and in data set [8] were 0.064 nM and 1.22 nM, respectively. The compound further returned an AUC(0-inf) in data set [3] of 1880 ng·h/mL. In data set [3], this compound came in with a Cmax of 354 ng/mL. For the same compound, the Tmax in data set [3] is 2 h. In data set [3], this compound showed a half-life of 2.56 h. The “tumor weight after 8 weeks of treatment” value in [9] (0.125 mg/kg daily sc) is 5.4 ± 0.67 mg; in data set [9] (1.25 mg/kg daily sc), 5.0 ± 0.61 mg; in data set [9] (12.5 mg/kg daily sc), 4.8 ± 0.61 mg. Moreover, the “proportion of NFPAs examined with significant inhibition of cell proliferation” value in data set [10] is on record as “approximately 60%”.

The record behind these values is PMC7375803, “TBR-760, a Dopamine-Somatostatin Compound, Arrests Growth of Aggressive Nonfunctioning Pituitary Adenomas in Mice” (Endocrinology, 2020).
